Source: US20110028438A1, “MEDICAL USE OF 3-2,2,2-TRIMETHYLHYDRAZINIUM PROPIONATE SALTS” (JSC GRINDEKS, priority 2007, published 2011)
Marks after values point to notes of the source that are not given here.

Columns and labels:
adult male Wistar rats = experiment: Myocardial infarction in vivo (coronary artery occlusion and 120 minute reperfusion); parameters: species or system rat; settings: for Area of Necrosis, % of Area at Risk / Area of Risk/left ventricle area / Infarct size, % of control: rats, 100 mg/kg by mouth for 14 days; for Area of Necrosis, % of Area at Risk: after 120 minute reperfusion; for Area of Risk/left ventricle area: area at risk expressed as percentage of the left ventricle; for Infarct size, % of control: relative to saline control group; for Therapeutic effect in in vivo myocardial infarction model compared with Meldonium dihydrate: result in words
Protocol: Experiments were conducted on adult male Wistar rats with initial weight of 300-350 g. During the experiment, the animals were kept in Standard crates in groups of 8. The feed was a standardized diet R70 (LABFOR, Lactamin AB, Sweden). The room temperature was kept at 21-23° C., relative humidity at 65±10%, 12 hour light/darkness cycle.
Rats weighing approximately 300 g were randomly divided into 4 groups of 8 animals each. The first group received saline by mouth (control group), the second received 100 mg/kg Meldonium dihydrate by mouth, the third 100mg/kg Meldonium hydrogen fumarate and the fourth 100 mg/kg Meldonium dihydrogen phosphate received for 14 days.
Rats were anesthetized with sodium pentobarbital (60 mg/kg i.p.). They were intubated and artificially respirated with rodent respirator (Rodent Ventilator 7025, Ugo Basile, (tally) with 15 mL/kg room air at a respiration rate of 55 breaths/min. Thoracic was open on the left side of breastbone by cutting fourth and fifths, if necessary, ribs. The pericard was open and 5/0 polypropylene suture (Surgipro II, Syneture) was passed under the left anterior descending coronary artery and threaded through a small plastic tube to permit reversible occlusion of the coronart artery. Coronary flow was measured using an ultrasound flow detector (HSE) and PowerLab 8/30 system from ADlnstruments.
Occlusion was performed by constricting threads through a plastic tube.
At the end of the 120 minute reperfusion, After reperfusion hearts were excised and retrogradely perfused via aorta at a constant pressure of 50 mm Hg, with oxygenated Krebs-Henseleit buffer (content in mmol/L: NaCl 118, Ca Cl2 2.52, MgCl2 1.64, NaHCO3 24.88, KH2PO4 1.18, glucose 10.0, EDTA 0.05) pH 7.3-7.5 at 37° C. Then after 10 min the left anterior descending coronary artery was relegated and the risk zone was delineated with 4 mL of 0.1% methylene blue solution in Krebs-Henseleit buffer infused via the aorta root. Hearts were sectioned transversely from the apex to the base of 2 mm thickness and incubated in 1% triphenyl-tetrazolium chloride in phosphate buffer (pH 7.4, 37° C.) for 10 minutes to stain viable tissue red and necrotic tissue white. Afterward, the right ventricle was cut off and photos of the left-ventricle slices were made with a Minolta 7D photo camera. Computerized planemetric analysis of photographs was performed using Image-Pro Plus 4.5.1 software to determine the area at risk (AR) and area of necrosis (AN) expressed as percentage of the left ventricle (LV). Obtained values were then used to calculate the infarct size (IS) as percentage of risk area according to formula: […]

[1] = as disclosed in EP 1667960 A; cited from earlier work

SMILES	Area of Necrosis, % of Area at Risk (adult male Wistar rats)	Area of Risk/left ventricle area (adult male Wistar rats)	Infarct size, % of control (adult male Wistar rats)	Therapeutic effect in in vivo myocardial infarction model compared with Meldonium dihydrate (adult male Wistar rats)	Stability comparatively with Meldonium dihydrate [1]
C[N+](C)(C)NCCC(=O)[O-] [Meldonium dihydrate, 3-(2,2,2-Trimethylhydrazinium) propionate dihydrate, reference compound]	64.0 ± 2.7 % of Area at Risk	58.0 ± 2.2	99.0 ± 4.2 % of control	–	–
C[N+](C)(C)NCCC(=O)O.O=C([O-])/C=C/C(=O)O [Meldonium hydrogen fumarate, 3-(2,2,2-trimethylhydrazinium) propionate hydrogen fumarate]	52.2 ± 4.3 % of Area at Risk	62.0 ± 3.5	81.0 ± 6.6 % of control	more effective as Meldonium dihydrate	more stable substance comparatively with Meldonium dihydrate
C[N+](C)(C)NCCC(=O)O.O=P([O-])(O)O [Meldonium dihydrogen phosphate, 3-(2,2,2-trimethylhydrazinium) propionate dihydrogen phosphate]	50.9 ± 2.6*^,# % of Area at Risk	57.0 ± 3.0	79.0 ± 4.1*^,# % of control	statistically better therapeutically effect than Meldonium dihydrate	more stable substance comparatively with Meldonium dihydrate
